Source: patent US5665738A, “Imidazole derivatives and processes for the preparation thereof” (Korea Research Institute of Chemical Technology, priority 1994, dated 1997)

test system: angiotensin II receptor; test: Angiotensin II receptor binding assay ([3H] angiotensin II displacement); conditions: 60 minutes at 25° C., pH 7.2, test concentration not given
Experimental: The inventive compounds were tested to measure their angiotensin II receptor binding capacity as follows.
1. Angiotensin II receptor binding assay
In accordance with the procedure disclosed in Chiu, A. T. et al., Eur. J. Pharm., 157, 13 ([…])t a ligand marked with a radioistope was reacted with an angiotensin II receptor and the reactant was filtered with a glass fiber to remove unreacted ligand. After washing the filter, the amount of the remaining isotope was measured to determine the binding activity of the ligand, as described below in detail.
(i) Isolation of angiotensin II receptor
Sprague-Dawley rats and Wistar rats of 250 to 350 g (from The Korea Research Institute of Chemical Technology) were tested and the test procedures were carried out at 4° C., unless otherwise specified. Adrenal gland was separated from the Sprague-Dawley rats (liver, in the case of Wistar rats) into cortex and medulla. The separated adrenal cortex and medulla were washed with a sucrose buffer solution (0.2M sucrose, 1 mM EDTA, 10 mM Tris, pH 7.2) and homogenized in the same buffer solution by using a Teflon pestle and a Brinkmann homogenizer. The homogenates were centrifuged at 3,000× g for 10 minutes to remove precipitates and further centrifuged at 12,000× g for 13 minutes. The final supernatants were centrifuged at 102,000× g for 1 hour to obtain precipitates, which were washed with a Tris buffer solution (50 mM Tris, 5 mM MgCl2, pH 7.2) and re-centrifuged at 102,000× g for 1 hour. The resulting precipitates were immediately processed at the following step or stored at -70° C.
The precipitates were suspended in a Tris buffer solution. The amount of protein was determined by using a Bio-Rad DC protein analyzing kit and the protein concentration was adjusted to the amounts of: 0.2 to 0.3 mg/ml (Sprague-Dawley rat: adrenal cortex), 1.5 to 2.0 mg/ml (Sprague-Dawley rat: adrenal medulla), and 1.5 to 2.0 mg/ml (Wistar rat: liver). To the suspension, bovine serum albumin (BSA) was added to a concentration of 0.25 wt % and the resultant was immediately processed at the following step or stored at -70° C.
(ii) Measurement of angiotensin II receptor binding capacity
50 μl (based on ligand) of [^3 H] angiotensin II (NEN, NET-446) and 10 μl of each of the test compounds with various concentrations were added to the buffer solution (50 mM Tris (pH 7.2), 5 mM MgCl2, 0.25% BSA) to adjust the final volume to be 0.5 ml. Losartan (Dup 753), which is disclosed in EP No. 400,974 issued to Merck, was used as the control compound. 100 μl of the receptor suspension was added thereto and the resulting solution was reacted for 60 minutes while stirring in a water bath at 25° C. 3 ml of cold buffer solution for analysis was added to cease the reaction. The isotope which was bound to the receptor was isolated from the resultant by using Brandel Cell Harvester System with Whatman glass fiber GF/C. After washing the filter, the radioactivity of the filter was determined by using a liquid scintillation counter. Binding inhibition (%) of the test compound was calculated as follows:
Binding Inhibition (%)=[{(T-B)-(S-B)}/(T-B)]×100
wherein T is the radioactivity (cpm) of the reaction product untreated with the test compound, S is the radioactivity (cpm) of the reaction product treated with the test compound, and B is the radioactivity (cpm) of blank test.

Binding Inhibition (%) | Structure (SMILES)
62.9% | CCCCc1nc(Cl)c(C(O)c2cccc(Br)[n+]2[O-])n1Cc1ccc(-c2ccccc2-c2nn[nH]n2)cc1 (stereo not shown) [Compound 16]
95.6% | CCCCc1nc(Cl)c(C(=O)c2ccc(CN(CC)CC)cn2)n1Cc1ccc(-c2ccccc2-c2nnn[nH]2)cc1 [Compound 34, {2-butyl-5-chloro-3-[(2'-(1H-tetrazol-5-yl)biphenyl-4-yl)methyl]-3H-imidazol-4-yl}[5-((diethylamino)methyl)pyridin-2-yl]methanone]
97.8% | CCCCc1nc(Cl)c(C(=O)c2ccc(CN(CC)CC)c[n+]2[O-])n1Cc1ccc(-c2ccccc2-c2nn[nH]n2)cc1 [Compound 31, {2-butyl-5-chloro-3-[(2'-(1H-tetrazol-5-yl)biphenyl-4-yl)methyl]-3H-imidazol-4-yl}[5-(diethylamino)methyl-1-oxypyridin-2-yl]methanone]
73.3% | CCCCc1nc(Cl)c(C(O)c2ccc(CN(CC)CC)cn2)n1Cc1ccc(-c2ccccc2-c2nnn[nH]2)cc1 (stereo not shown) [Compound 33, {2-butyl-5-chloro-3-[(2'-(1H-tetrazol-5-yl)biphenyl-4-yl)methyl]-3H-imidazol-4-yl}[5-((diethylamino)methyl)pyridin-2-yl]methanol]
76.1% | CCCCc1nc(Cl)c(C(O)c2ccc(CO)c[n+]2[O-])n1Cc1ccc(-c2ccccc2-c2nn[nH]n2)cc1 (stereo not shown) [Compound 24, {2-butyl-5-chloro-3-[(2'-(1H-tetrazol-5-yl1)biphenyl1-4-yl)methyl1]-3H-imidazol-4-yl}(5-hydroxymethyl-1-oxypyridin-2-yl)methanol]
88.6% | CCCCc1nc(Cl)c(C(=O)c2cccc(Br)[n+]2[O-])n1Cc1ccc(-c2ccccc2-c2nn[nH]n2)cc1 [Compound 15, {2-butyl-5-chloro-3-[(2'-(1H-tetrazol-5-yl)biphenyl-4-yl)methyl]-3H-imidazol-4-yl}(6-bromo-1-oxypyridin-2-yl)methanone]
95.4% | CCCCc1nc(Cl)c(C(=O)c2cccc(C=NO)[n+]2[O-])n1Cc1ccc(-c2ccccc2-c2nn[nH]n2)cc1 [Compound 38, {2-butyl-5-chloro-3-[(2'-(1H-tetrazol-5-yl)biphenyl-4-yl)methyl]-3H-imidazol-4-yl}[6-(hydroxyimino)methyl-1-oxypyridin-2-yl]methanone]
83.6% | CCCCc1nc(Cl)c(C(=O)c2ccc(CCl)cn2)n1Cc1ccc(-c2ccccc2-c2nnn[nH]2)cc1 [Compound 29, {2-butyl-5-chloro-3-[(2'-(1H-tetrazol-5-yl)biphenyl-4-yl)methyl]-3H-imidazol-4-yl}[5-(chloromethyl)pyridin-2-yl]methanone]
81.3% | CCCCc1nc(Cl)c(C(=O)c2ccc(C=O)cn2)n1Cc1ccc(-c2ccccc2-c2nn[nH]n2)cc1 [Compound 27, {2-butyl-5-chloro-3-[(2'-(1H-tetrazol-5-yl1)biphenyl-4-yl)methyl]-3H-imidazol-4-yl}(5-formylpyridin-2-yl)methanone]
90.2% | CCCCc1nc(Cl)c(C(O)c2ccc(CO)cn2)n1Cc1ccc(-c2ccccc2-c2nnn[nH]2)cc1 (stereo not shown) [Compound 30, {2-butyl-5-chloro-3-[(2'-(1H-tetrazol-5-yl)biphenyl-4-yl)methyl]-3H-imidazol-4-yl}[5-(hydroxymethyl)pyridin-2-yl]methanol]
93.4% | CCCCc1nc(Cl)c(C(=O)c2ccc(C=O)c[n+]2[O-])n1Cc1ccc(-c2ccccc2-c2nn[nH]n2)cc1 [Compound 23, {2-butyl-5-chloro-3-[(2'-(1H-tetrazol-5-yl)biphenyl-4-yl)methyl]-3H-imidazol-4-yl}(5-formyl-1-oxypyridin-2-yl)methanone]
64.9% | CCCCc1nc(Cl)c(C(O)c2cccc(C=O)n2)n1Cc1ccc(-c2ccccc2-c2nnn[nH]2)cc1 (stereo not shown) [Compound 5, {2-butyl-5-chloro-3-[(2'-(1H-tetrazol-5-yl)biphenyl-4-yl)methyl]-3H-imidazol-4-yl}(6-formylpyridin-2-yl)methanol]
78.9% | CCCCc1nc(Cl)c(C(=O)c2ccc(CO)cn2)n1Cc1ccc(-c2ccccc2-c2nn[nH]n2)cc1 [Compound 28]
86.5% | CCCCc1nc(Cl)c(C(=O)c2cccc(C(=O)OC)[n+]2[O-])n1Cc1ccc(-c2ccccc2-c2nn[nH]n2)cc1 [Compound 21, {2-butyl-5-chloro-3-[(2'-(1H-tetrazol-5-yl)biphenyl-4-yl)methyl]-3H-imidazol-4-yl}(6-methoxycarbonyl-1-oxypyridin-2-yl)methanone]
50.3% | CCCCc1nc(Cl)c(C(=O)c2cccc(Br)n2)n1Cc1ccc(-c2ccccc2-c2nnn[nH]2)cc1 [Compound 17, {2-butyl-5-chloro-3-[(2'-(1H-tetrazol-5-yl)biphenyl-4-yl)methyl]-3H-imidazol-4-yl}(6-bromopyridin-2-yl)methanone]
57.1% | CCCCc1nc(Cl)c(C(O)c2cccc(Br)n2)n1Cc1ccc(-c2ccccc2-c2nnn[nH]2)cc1 (stereo not shown) [Compound 18, {2-butyl-5-chloro-3-[(2'-(1H-tetrazol-5-yl)biphenyl-4-yl)methyl]-3H-imidazol-4-yl}(6-bromopyridin-2-yl)methanol]
87.5% | CCCCc1nc(Cl)c(C(=O)c2ccc(C(OC)OC)c(C)[n+]2[O-])n1Cc1ccc(-c2ccccc2-c2nn[nH]n2)cc1 [Compound 39, {2-butyl-5-chloro-3-[(2'-(1H-tetrazol-5-yl)biphenyl-4-yl)methyl]-3H-imidazol-4-yl}[5-(dimethoxymethyl)-6-methyl-1-oxypyridin-2-yl]methanone]
48.0% | CCCCc1nc(Cl)c(CO)n1Cc1ccc(-c2ccccc2-c2nn[nH]n2)cc1 [Dup 753, Losartan, reference compound]
90.4% | CCCCc1nc(Cl)c(C(=O)c2ccc(C=O)c(C)[n+]2[O-])n1Cc1ccc(-c2ccccc2-c2nn[nH]n2)cc1 [Compound 40, {2-butyl-5-chloro-3-[(2'-(1H-tetrazol-5-yl)biphenyl-4-yl)methyl]-3H-imidazol-4-yl}(5-formyl-6-methyl-1-oxypyridin-2-yl)methanone]
